# Results published in patent US20240190841A1, “MODULATORS OF BCL6 PROTEOLYSIS AND ASSOCIATED METHODS OF USE” (Arvinas Operations, Inc., priority 2022, published 2024).
# Target: T1, BCL6 (Homo sapiens, UniProt P41182)
# T1 construct: endogenous in cells; host or cells: T47D breast cancer epithelial cells
# Experiment: Immunofluorescence high content imaging of BCL6 degradation in T47D cells
# Format: cell-based
# Settings: T47D breast cancer epithelial cells, 3 days incubation
# Protocol: Immunofluorescence Protocol for High Content Imaging of BCL6
# T47D cells were seeded in 100 μl volume of RPMI11640-10% FBS in a 96-well black/clear bottom plates for adherent lines (Corning #3904).
# Day 1. T47D breast cancer epithelial cells were seeded at a density so that confluence is ˜70-90% at endpoint. Cells were seeded at 7K/0.1 mL/well the morning prior to the addition of exemplary bifunctional degradation compounds.
# Day 2. Prepare an 11 point 3-fold serial dilution of exemplary bifunctional compound in DMSO and aliquot an appropriate volume to cell growth media to generate a 2× final concentration of exemplary bifunctional compound. Add an equal volume (0.1 ml) of 2× exemplary bifunctional compound/media mix to previously plated cells, for a final top concentration in aqueous cell growth media of 0.1 or 1 μM. Incubate for 3 days at 37° C., 5% CO2.
# Day 5 Immunofluorescence. Discard cell media. Wash wells with 200 μl of room temperature phosphate-buffered saline (PBS). Prepared 4% paraformaldehyde (PFA) from 16% PFA (Electron Microscopy Sciences #15710) using 1×PBS. Fifty μL of 4% PF was added to each well and incubate for 15 minutes at room temperature to fix the cells. The PFA was aspirated and the cells washed twice with PBS (200 μL)).
# Prepared 0.1% Triton X-100 in PBS using 10% triton X-100 stock. The cells were permeabilized by adding 100 μL of the 0.1% Triton X-100 in PBS to each well to permeabilize cells and incubating at room temperature for 15 minutes. Cells were washed twice with PBS.
# Prepared 3% BSA/PBS (from Thermofisher #37515 Blocker BSA in TBS, 10%), and 100 μL was added to each well. The cells were incubated for at least 1 hour at room temperature.
# Prepared 1% BSA/PBS using Blocker BSA/PBS, and the 3% BSA/PBS removed from the wells.
# For no primary antibody controls, 50 μL 1% BSA/PBS was added.
# Primary antibody (BCL6 Rb Ab, CST-14895, Cell Signaling) was diluted 1:300 in 1% BSA/PBS using Blocker BSA/PBS.
# Fifty μl of primary antibody added to all remaining wells (i.e., all wells other than the primary antibody controls) and the cells were incubated overnight at 4° C. with slow orbital movement.
# Day 6. Contents of the wells was removed and the cells washed four times with 200 μL PBS. 1% BSA/PBS was prepared using Blocker BSA in PBS.
# Diluted secondary antibody goat anti-Rb IgG Alexa-488 1:1000, and cell mask-Alexa-647 1:3000 in 1% BSA/PBS in the same mix. Add 50 μL to each well and incubate at room temperature for 1 hour in the dark.
# Cells were washed three times with 200 μL PBS, and then incubated for 10 minutes with 100 μL Hoechst dye at 1 μg/mL (20 mM stock) to stain cell nuclei. Wells were then washed with 200 μl PBS, and 100 μL of PBS was added to each well and the plate covered plate with a plastic opaque cover. Plates were stored at […] and covered in aluminum foil until imaged.
# Plates were equilibrated to room temperature prior to reading. The bottom of the plate was wiped with 70% isopropanol immediately prior to imaging.
# Imaging: • 10×, 4 fields/well, include Top hat smoothing in the analysis protocol.
# Supplies/Reagents: • 16% paraformaldehyde: Electron Microscopy Sciences #15710 • Hoechst: Thermofisher #62249 • Blocker BSA in PBS, 10%: Thermofisher #37515 • Blocker BSA in TBS, 10%: Thermofisher #37520 • Goat anti-rabbit or mouse AlexaFluor-488: Thermofisher #A11008 • Cell mask deep red AlexaFluor-647: Thermofisher #C10046 • Wash buffer, PBS: 20×PBS, Thermofisher
Structure (SMILES),DC50 [nM],Dmax [%]
"CNC(=O)COc1cc2cc(Nc3nc(N4CCC(O[C@H]5C[C@H](N6CCN(c7ccc8c(ccn8C8CCC(=O)NC8=O)c7)CC6)C5)CC4)ncc3Cl)ccc2n(C(C)C)c1=O (some centres unmarked) [Compound 17, 2-({6-[(5-chloro-2-{4-[(1r,3r)-3-{4-[1-(2,6-dioxopiperidin-3-yl)-1H-indol-5-yl]piperazin-1-yl}cyclobutoxy]piperidin-1-yl}pyrimidin-4-yl)amino]-2-oxo-1-(propan-2-yl)-1,2-dihydroquinolin-3-yl}oxy)-N-methylacetamide]",< 10,≥ 70
"CNC(=O)COc1cc2cc(Nc3nc(N4CCC(O[C@H]5C[C@H](N6CCN(c7ccc8c(c7)n(C)c(=O)n8C7CCC(=O)NC7=O)[C@@H](C)C6)C5)CC4)ncc3Cl)ccc2n(C(C)C)c1=O (stereo partly drawn) [Compound 18, 2-({6-[(5-chloro-2-{4-[(1r,3r)-3-[(3S)-4-[1-(2,6-dioxopiperidin-3-yl)-3-methyl-2-oxo-2,3-dihydro-1H-1,3-benzodiazol-5-yl]-3-methylpiperazin-1-yl]cyclobutoxy]piperidin-1-yl}pyrimidin-4-yl)amino]-2-oxo-1-(propan-2-yl)-1,2-dihydroquinolin-3-yl}oxy)-N-methylacetamide]",< 10,≥ 70
"CNC(=O)COc1cc2cc(Nc3nc(N4CCC(O[C@H]5C[C@H](N6CCN(c7ccc8c(c7C)n(C)c(=O)n8C7CCC(=O)NC7=O)CC6)C5)CC4)ncc3Cl)ccc2n(C(C)C)c1=O (some centres unmarked) [Compound 19, 2-({6-[(5-chloro-2-{4-[(1r,3r)-3-{4-[1-(2,6-dioxopiperidin-3-yl)-3,4-dimethyl-2-oxo-2,3-dihydro-1H-1,3-benzodiazol-5-yl]piperazin-1-yl}cyclobutoxy]piperidin-1-yl}pyrimidin-4-yl)amino]-2-oxo-1-(propan-2-yl)-1,2-dihydroquinolin-3-yl}oxy)-N-methylacetamide]",< 10,≥ 70
"CNC(=O)COc1cc2cc(Nc3nc(N4CCC(O[C@H]5C[C@H](N6CCN(c7cc8c(cc7C)n(C7CCC(=O)NC7=O)c(=O)n8C)CC6)C5)CC4)ncc3Cl)ccc2n(C(C)C)c1=O (some centres unmarked) [Compound 20, 2-({6-[(5-chloro-2-{4-[(1r,3r)-3-{4-[1-(2,6-dioxopiperidin-3-yl)-3,6-dimethyl-2-oxo-2,3-dihydro-1H-1,3-benzodiazol-5-yl]piperazin-1-yl}cyclobutoxy]piperidin-1-yl}pyrimidin-4-yl)amino]-2-oxo-1-(propan-2-yl)-1,2-dihydroquinolin-3-yl}oxy)-N-methylacetamide]",< 10,≥ 70
"CNC(=O)COc1cc2cc(Nc3nc(N4CCC(O[C@H]5C[C@H](N6CCN(c7ccc8c(cnn8C8CCC(=O)NC8=O)c7)CC6)C5)CC4)ncc3Cl)ccc2n(C(C)C)c1=O (some centres unmarked) [Compound 21, 2-({6-[(5-chloro-2-{4-[(1r,3r)-3-{4-[1-(2,6-dioxopiperidin-3-yl)-1H-indazol-5-yl]piperazin-1-yl}cyclobutoxy]piperidin-1-yl}pyrimidin-4-yl)amino]-2-oxo-1-(propan-2-yl)-1,2-dihydroquinolin-3-yl}oxy)-N-methylacetamide]",< 10,≥ 70
"CNC(=O)COc1cc2cc(Nc3nc(N4CCC(O[C@H]5C[C@H](N6CCN(c7ccc8nn(C9CCC(=O)NC9=O)cc8c7)CC6)C5)CC4)ncc3Cl)ccc2n(C(C)C)c1=O (some centres unmarked) [Compound 22, 2-({6-[(5-chloro-2-{4-[(1r,3r)-3-{4-[2-(2,6-dioxopiperidin-3-yl)-2H-indazol-5-yl]piperazin-1-yl}cyclobutoxy]piperidin-1-yl}pyrimidin-4-yl)amino]-2-oxo-1-(propan-2-yl)-1,2-dihydroquinolin-3-yl}oxy)-N-methylacetamide]",10 to 50,50 to 70
CNC(=O)COc1cc2cc(Nc3nc(N4CCC(O[C@H]5C[C@H](N6CCN(c7ccc8c(c7)ncn8C7CCC(=O)NC7=O)CC6)C5)CC4)ncc3Cl)ccc2n(C(C)C)c1=O (some centres unmarked) [Compound 23],< 10,50 to 70
